≈ marks a conversion by molar mass, not a printed value. Calls of active or inactive are those of the source. No cut-off for these calls is given here.
Legend:
[1] = tested on: Staphylococcus aureus; assay: Antibacterial activity against methicillin-resistant Staphylococcus aureus ATCC 43300 assessed as growth inhibition at 1 mg/ml after 24 hrs by agar diffusion method; format: functional, organism-based
[2] = tested on: Pseudomonas aeruginosa; assay: Antibacterial activity against Pseudomonas aeruginosa ATCC 10145 assessed as growth inhibition by broth dilution method; format: functional
[3] = tested on: Staphylococcus epidermidis; assay: Antibacterial activity against Staphylococcus epidermidis ATCC 12228 assessed as growth inhibition at 1 mg/ml after 24 hrs by agar diffusion method; format: functional, organism-based
[4] = tested on: Bacillus subtilis; assay: Antibacterial activity against Bacillus subtilis ATCC 11774 assessed as growth inhibition at 1 mg/ml after 24 hrs by agar diffusion method; format: functional; conditions: ATCC 11774, 24 h, read-out: DIZ
[5] = tested on: Enterococcus faecalis; assay: Antibacterial activity against Enterococcus faecalis ATCC 14506 assessed as growth inhibition at 1 mg/ml after 24 hrs by agar diffusion method; format: functional, organism-based
[6] = tested on: Escherichia coli; assay: Antibacterial activity against Escherichia coli ATCC 10536 assessed as growth inhibition by broth dilution method; format: functional
[7] = tested on: Staphylococcus aureus; assay: Antibacterial activity against Staphylococcus aureus ATCC 25923 assessed as growth inhibition at 1 mg/ml after 24 hrs by agar diffusion method; format: functional; conditions: ATCC 25923, 24 h, read-out: DIZ
[8] = Selectivity index, ratio of CC50 for african green monkey vero cells to MIC for Staphylococcus aureus ATCC 25923; format: functional
[9] = Selectivity index, ratio of CC50 for african green monkey vero cells to MIC for Bacillus subtilis ATCC 11774; format: functional
[10] = tested on: Salmonella typhimurium; assay: Antibacterial activity against Salmonella typhimurium ATCC 51812 assessed as growth inhibition at 1 mg/ml after 24 hrs by agar diffusion method; format: functional, organism-based; conditions: Salmonella enterica subsp. enterica serovar Typhimurium
[11] = Selectivity index, ratio of CC50 for african green monkey vero cells to MIC for Pseudomonas aeruginosa ATCC 10145; format: functional
[12] = tested on: Bacillus subtilis; assay: Bactericidal activity against Bacillus subtilis ATCC 11774 by broth dilution method; format: functional
[13] = Cytotoxicity against african green monkey vero cells by MTT assay; format: cell-based; conditions: chlorocebus sabaeus
[14] = tested on: Pseudomonas aeruginosa; assay: Bactericidal activity against Pseudomonas aeruginosa ATCC 10145 by broth dilution method; format: functional
[15] = tested on: Bacillus subtilis; assay: Antibacterial activity against Bacillus subtilis ATCC 11774 assessed as growth inhibition by broth dilution method; format: functional
[16] = tested on: Staphylococcus aureus; assay: Bactericidal activity against Staphylococcus aureus ATCC 25923 by broth dilution method; format: functional
[17] = Selectivity index, ratio of CC50 for african green monkey vero cells to MIC for Serratia marcescens ATCC 13880; format: functional
[18] = tested on: Escherichia coli; assay: Bactericidal activity against Escherichia coli ATCC 10536 by broth dilution method; format: functional
[19] = tested on: Serratia marcescens; assay: Bactericidal activity against Serratia marcescens ATCC 13880 by broth dilution method; format: functional
[20] = tested on: Escherichia coli; assay: Antibacterial activity against Escherichia coli ATCC 10536 assessed as growth inhibition at 1 mg/ml after 24 hrs by agar diffusion method; format: functional; conditions: ATCC 10536, 24 h, read-out: DIZ
[21] = tested on: Serratia marcescens; assay: Antibacterial activity against Serratia marcescens ATCC 13880 assessed as growth inhibition at 1 mg/ml after 24 hrs by agar diffusion method; format: functional; conditions: ATCC 13880, 24 h, read-out: DIZ
[22] = tested on: Staphylococcus aureus; assay: Antibacterial activity against Staphylococcus aureus ATCC 25923 assessed as growth inhibition by broth dilution method; format: functional
[23] = Selectivity index, ratio of CC50 for african green monkey vero cells to MIC for Escherichia coli ATCC 10536; format: functional
[24] = tested on: Serratia marcescens; assay: Antibacterial activity against Serratia marcescens ATCC 13880 assessed as growth inhibition by broth dilution method; format: functional
[25] = tested on: Pseudomonas aeruginosa; assay: Antibacterial activity against Pseudomonas aeruginosa ATCC 10145 assessed as growth inhibition at 1 mg/ml after 24 hrs by agar diffusion method; format: functional; conditions: ATCC 10145, 24 h, read-out: DIZ
[26] = tested on: Staphylococcus aureus; assay: Antibacterial activity against Staphylococcus aureus ATCC 25923 assessed as growth inhibition after 24 hrs by agar diffusion method; format: functional
[27] = tested on: Bacillus subtilis; assay: Antibacterial activity against Bacillus subtilis ATCC 11774 assessed as growth inhibition after 24 hrs by agar diffusion method; format: functional
[28] = tested on: Serratia marcescens; assay: Antibacterial activity against Serratia marcescens ATCC 13880 assessed as growth inhibition at 10 ug after 24 hrs by agar diffusion method; format: functional; conditions: ATCC 13880, 24 h, read-out: DIZ
[29] = tested on: Escherichia coli; assay: Antibacterial activity against Escherichia coli ATCC 10536 assessed as growth inhibition at 10 ug after 24 hrs by agar diffusion method; format: functional; conditions: ATCC 10536, 24 h, read-out: DIZ
[30] = tested on: Pseudomonas aeruginosa; assay: Antibacterial activity against Pseudomonas aeruginosa ATCC 10145 assessed as growth inhibition at 10 ug after 24 hrs by agar diffusion method; format: functional; conditions: ATCC 10145, 24 h, read-out: DIZ

Row | Compound | growth inhibition (GI) [1] | MIC [2] [mg/mL] | growth inhibition (GI) [3] | zone of inhibition at 1000 µg/mL [4] [mm] | growth inhibition (GI) [5] | MIC [6] [mg/mL] | zone of inhibition at 1000 µg/mL [7] [mm] | Selectivity Index [8] | Selectivity Index [9] | growth inhibition (GI) [10] | MBC [12] [mg/mL] | CC50 [13] [mg/mL] | MIC [15] [mg/mL] | MBC [16] [mg/mL] | MBC [18] [mg/mL] | zone of inhibition at 1000 µg/mL [20] [mm] | zone of inhibition at 1000 µg/mL [21] [mm] | MIC [22] [mg/mL] | Selectivity Index [23] | zone of inhibition at 1000 µg/mL [25] [mm] | other results
1 | N#Cc1c(N2CCOCC2)n[nH]c1N | inactive | 8 (≈ 41.4 mM) | inactive | 6 | inactive | 8 (≈ 41.4 mM) | 11 | 0.29 | 0.15 | inactive | 16 (≈ 82.8 mM) | 2.34 (≈ 12.1 mM) | 16 (≈ 82.8 mM) | > 16 | 16 (≈ 82.8 mM) | 11 | 6 | 16 (≈ 82.8 mM) | 0.29 | 7 | Selectivity Index [11]: 0.29; MBC [14]: 16 mg/mL (≈ 82.8 mM); Selectivity Index [17]: 0.29; MBC [19]: 8 mg/mL (≈ 41.4 mM); MIC [24]: 8 mg/mL (≈ 41.4 mM)
2 | O=C(N[C@H](CO)[C@H](O)c1ccc([N+](=O)[O-])cc1)C(Cl)Cl [CHLORAMPHENICOL] | – | – | – | – | – | – | – | – | – | – | – | – | – | – | – | – | – | – | – | – | diameter of the inhibition zone (DIZ) [26]: 25 mm; diameter of the inhibition zone (DIZ) [27]: 25 mm
3 | CN[C@@H]1[C@H](O[C@H]2[C@H](O[C@H]3[C@H](O)[C@@H](O)[C@H](N=C(N)N)[C@@H](O)[C@@H]3N=C(N)N)O[C@@H](C)[C@]2(O)C=O)O[C@@H](CO)[C@H](O)[C@H]1O [STREPTOMYCIN] | – | – | – | – | – | – | – | – | – | – | – | – | – | – | – | – | – | – | – | – | zone of inhibition at 10 µg/disc [28]: 20 mm; zone of inhibition at 10 µg/disc [29]: 13 mm; zone of inhibition at 10 µg/disc [30]: 14 mm
4 | CSc1c(C#N)c(N)nc2c(C#N)c(N3CCCCC3)nn12 | inactive | 8 (≈ 25.5 mM) | inactive | 10 | inactive | 16 (≈ 51.1 mM) | 11 | 0.11 | 0.11 | inactive | 16 (≈ 51.1 mM) | 1.75 (≈ 5.58 mM) | 16 (≈ 51.1 mM) | 16 (≈ 51.1 mM) | 16 (≈ 51.1 mM) | 10 | 7 | 16 (≈ 51.1 mM) | 0.11 | 7 | Selectivity Index [11]: 0.22; MBC [14]: 16 mg/mL (≈ 51.1 mM); Selectivity Index [17]: 0.11; MBC [19]: 16 mg/mL (≈ 51.1 mM); MIC [24]: 16 mg/mL (≈ 51.1 mM)
5 | Cc1cc(C)n2nc(N3CCCCC3)c(C#N)c2n1 | inactive | – | inactive | 10 | inactive | 16 (≈ 62.7 mM) | 12 | 0.08 | 0.08 | inactive | 16 (≈ 62.7 mM) | 1.25 (≈ 4.9 mM) | 16 (≈ 62.7 mM) | 16 (≈ 62.7 mM) | 16 (≈ 62.7 mM) | 11 | 7 | 16 (≈ 62.7 mM) | 0.08 | 6 | Selectivity Index [17]: 0.08; MBC [19]: 16 mg/mL (≈ 62.7 mM); MIC [24]: 16 mg/mL (≈ 62.7 mM)
6 | N#Cc1c(N2CCCCC2)n[nH]c1N | inactive | 8 (≈ 41.8 mM) | inactive | 9 | inactive | 4 (≈ 20.9 mM) | 15 | 0.14 | 0.14 | inactive | 8 (≈ 41.8 mM) | 0.55 (≈ 2.88 mM) | 4 (≈ 20.9 mM) | 16 (≈ 83.7 mM) | 8 (≈ 41.8 mM) | 15 | 6 | 16 (≈ 83.7 mM) | 0.14 | 7 | Selectivity Index [11]: 0.07; MBC [14]: 8 mg/mL (≈ 41.8 mM); Selectivity Index [17]: 0.28; MBC [19]: 4 mg/mL (≈ 20.9 mM); MIC [24]: 2 mg/mL (≈ 10.5 mM)
7 | N#Cc1c(N2CCCC2)n[nH]c1N | inactive | 8 (≈ 45.1 mM) | inactive | 9 | inactive | 8 (≈ 45.1 mM) | 10 | 0.31 | 0.31 | inactive | 8 (≈ 45.1 mM) | 2.5 (≈ 14.1 mM) | 8 (≈ 45.1 mM) | 16 (≈ 90.3 mM) | 16 (≈ 90.3 mM) | 9 | 7 | 16 (≈ 90.3 mM) | 0.31 | 7 | Selectivity Index [11]: 0.31; MBC [14]: 16 mg/mL (≈ 90.3 mM); Selectivity Index [17]: 0.31; MBC [19]: 8 mg/mL (≈ 45.1 mM); MIC [24]: 8 mg/mL (≈ 45.1 mM)
8 | Cc1cc(O)n2nc(N3CCOCC3)c(C#N)c2n1 | inactive | 8 (≈ 30.9 mM) | inactive | 9 | inactive | 16 (≈ 61.7 mM) | 9 | 0 | 0.01 | inactive | 16 (≈ 61.7 mM) | 0.063 (≈ 0.243 mM) | 8 (≈ 30.9 mM) | 16 (≈ 61.7 mM) | > 16 | 10 | 6 | 16 (≈ 61.7 mM) | 0 | 7 | Selectivity Index [11]: 0.01; MBC [14]: > 16 mg/mL
9 | N#Cc1nnc2c(C#N)c(N3CCCCC3)nn2c1N | inactive | 16 (≈ 59.6 mM) | inactive | 11 | inactive | 16 (≈ 59.6 mM) | 11 | 0.09 | 0.09 | inactive | 16 (≈ 59.6 mM) | 1.4 (≈ 5.22 mM) | 16 (≈ 59.6 mM) | 16 (≈ 59.6 mM) | 16 (≈ 59.6 mM) | 10 | 6 | 16 (≈ 59.6 mM) | 0.09 | 7 | Selectivity Index [11]: 0.09; MBC [14]: 16 mg/mL (≈ 59.6 mM)

From ChEMBL document CHEMBL2390874, “Synthesis, antibacterial activity and cytotoxicity of new fused pyrazolo[1,5-a]pyrimidine and pyrazolo[5,1-c][1,2,4]triazine derivatives from new 5-aminopyrazoles” (Eur J Med Chem, 2013)
